Measured values as given in patent publication US20030082200A1, “52 kda protein from coagulase negative staphylococci and fragments thereof” (priority 2000, published 2003).

Legend:
[1] = test system: immobilized Vn binding to S. epidermidis strain BD5703; assay: Inhibition test: binding of 3H-labeled bacteria to Vn coated wells; format: cell-based, Staphylococcus epidermidis; details: for Effect on BD5703 binding of immobilized Vn (in words): component added at the same time as bacteria
Procedure: (§1) ^3H-labeled bacteria were used for these tests. In brief, half a milliliter of an overnight cultured bacteria in TH broth was diluted in 5 ml TH broth containing 50 μCi of [methyl-^3H]thymidine (Amersham Plc., Buckinghamshire, UJK) and cultured for 5 hours at 37° C. on a gyrator shaker with vigorous agitation.
In another experiment, 50 μl bacteria (2×10^7cfu/ml) were mixed with the same volume of four mono-carbohydrates (0.1M D-fucose, 0.1M D-galactose, 0.1M D-glucose and 0.1M D-mannose), heparin (2 mg/ml), hyaluronic acid (2 mg/ml) or Vn (20 μg/ml). These mixtures with bacteria were incubated for 1 hour at 37° C. Heparin sodium salt and hyaluronic acid were purchased from Fluka Chemie AG, Buchs, Switzerland)
(§2) Finally, all wells were washed by PBS 5 times, individual wells were removed and immersed in 2.5 ml scintillation fluid (BDH chemicals, Pool, UK) and the radioactivity was counted in a liquid scintillation counter (Beckman Instruments, Fullerton, Calif., USA). Quantitation of relative binding percentage was achieved by the radioactivity from experimental groups in relation to the radioactivity from non-treated group.

[2] = test system: 52 kDa protein of BD5703; assay: Autoradiograph inhibition test: labeled Vn binding to blotted surface proteins; design: species or system Staphylococcus epidermidis; details: competing proteins 10 μg/ml; heparin, hyaluronic acid 1 mg/ml; autoradiography
Procedure: (§3) SDS-PAGE was performed on mini-Protean II cell (Bio-Rad, Richmond, Calif.) as previously described (16). The bacterial surface structures were extracted by 1M lithium chloride (pH 5) with protease inhibitor (Boehringer Mannheim, Mannheim, Germany) at 37° C. for 2 hours with end to end rotation. Extract was subjected to homogenous gel (12%) or gradient gel (4-15%) electrophoresis. The running and transfer conditions were as previously described (17).
(§4) The PDVF membranes (Micron Separations INC., Westborough, USA) were saturated with incubation in blocking buffers I and II (buffer I containing 0.6% ethanolamine, 0.9% glycine, 1% polyvinylpyrrolidone and 25% methanol pH 9.6; buffer II containing 0.6% ethanolamine, 0.9% glycine, 0.05% gelatin hydrolysate and 0.125% Tween 20 pH 9.6) for 15 min respectively (18). Saturated membranes were rinsed three times in PBST (PBS with 1% Tween 20). Then, the membranes were incubated with ^125I-labeled Vn (0.4 μg/ml) in PBST or in PBST supplemented with 1.05 M sodium chloride (final sodium chloride concentration 1.2M) overnight at 20° C. The membranes were washed and dried, then examined by autoradiography with X-Omat AR film (Eastman Kodak) after 3 days storage at −70° C.
(§5) For inhibition tests, the membrane with retained bacterial surface molecules was cut to individual strips, and then incubated with labeled Vn (0.4 μg/ml) in PBST mixed with different unlabeled competing molecules, including Vn (10 μg/ml), fibronectin (10 μg/ml), fibrinogen (10μg/ml), thrombospondin ([…]), plasminogen (10 μg/ml), human immunoglobulins (10 μg/ml), hemopexin (10 μg/ml), heparin (1 mg/ml). In a separate experiment, the strips were preincubated with heparin (1 mg/ml) and hyaluronic acid (1 mg/ml) for 1 hour at 20° C. prior to adding labeled Vn.

[3] = test system: 38 kDa protein of BD5703; assay: as above; design: species or system Staphylococcus epidermidis; details: competing proteins 10 μg/ml; heparin, hyaluronic acid 1 mg/ml; autoradiography
Procedure: as §3, §4, §5

[4] = test system: 21 kDa protein of BD5703; assay: as above; design: species or system Staphylococcus epidermidis; details: competing proteins 10 μg/ml; heparin, hyaluronic acid 1 mg/ml; autoradiography
Procedure: as §3, §4, §5

[5] = test system: 16 kDa protein of BD5703; assay: as above; design: species or system Staphylococcus epidermidis; details: competing proteins 10 μg/ml; heparin, hyaluronic acid 1 mg/ml; autoradiography
Procedure: as §3, §4, §5

[6] = test system: immobilized Vn binding to S. epidermidis strain BD5703; assay: Inhibition test: binding of 3H-labeled bacteria to Vn coated wells; format: cell-based, Staphylococcus epidermidis
[7] = test system: S. epidermidis BD5703; assay: Proteolytic treatment of bacterial cells, binding of immobilized Vn; format: cell-based, Staphylococcus epidermidis; details: BD5703 cells treated with protease; non-treated control = 100
Procedure: as §1
(§6) 3H-labeled bacteria cells (5×10^8) were suspended in 1 ml PBS heated at 100° C. for 30 min and rapidly cooled. The same amount of bacteria was treated by pronase E, protease K and trypsin (Sigma Chemical Co., St. Louis, USA) as previously described (15). After washes in PBS, 100 μl (1×10^7 cells) treated bacterial suspension were added into the Vn coated wells.
as §2

[8] = test system: S. aureus V8; assay: as above; format: cell-based, Staphylococcus aureus; details: V8 cells treated with protease; non-treated control = 100
Procedure: as §1, §6, §2

[9] = test system: immobilized Vn; assay: Trypsin treatment of Vn-coated wells, binding assay with 3H labeled bacteria; format: cell-based; details: trypsin 2 μg/well, 37° C. for 2 hours
Procedure: The wells pre-adsorbed with Vn were trypsinized at a concentration of 2 μg/well in PBS with 1 mM CaCl2 (37° C. for 2 hours) following an additional incubation with soybean trypsin inhibitor (4 μg/well) at 37° C. for 30 min in same buffer (15). The wells were then blocked by BSA and subjected to binding assay with ^3H labeled bacteria.

[10] = test system: BD5703 surface proteins; assay: Autoradiograph inhibition test: labeled Vn binding to blotted surface proteins; design: species or system Staphylococcus epidermidis; details: unlabeled Vn 10 μg/ml; autoradiography
Procedure: as §3, §4, §5

[11] = test system: immobilized S. epidermidis strain BD5703; assay: Binding of soluble 125I-labeled Vn to cells immobilized on ELISA plate wells; design: species or system Staphylococcus epidermidis; details: two-fold diluted 125I-Vn, maximally 5 μg/ml; FIG. 1
Procedure: (§7) Fifty micrograms of Vn was labeled with Na ^125I (Amersham Plc., Buckinghamshire, UK) using the modified chloramine-T method (specificity, 1×10^6 cpm/μg), and used in a minor modified soluble binding test with final reaction volume of 150 μl in PBS (15). During binding experiments, radiolabeled protein were diluted to approx. 0.025 μg (25,000cpm) and incubated with bacteria (10^9 cells per test tube). In an alternative method, cells of BD5703 were immobilized on ELISA plates (Costar Co., Cambridge, USA) by incubating 100 μl of bacterial suspension (2×10^7 cells in PBS) for 30 min at 37° C. Non-attached bacteria were removed by 3 washes with PBS. The remaining sites on the plastic were blocked by 2%, a bovine serum albumin in PBS (BSA-PBS) for 1 hour at 37° C. The wells were washed with PBS, and two-fold diluted ^125I-labeled Vn in 1% BSA-PBS (maximally 5 μg/ml) was added. Wells coated with 1% BSA served as background. After incubation at 37° C. for 45 min and washes with PBS, individual wells were removed and the radioactivity was measured in a gamma counter (LKB-Wallac, Turku, Finland).

[12] = test system: S. aureus strain V8; assay: Bacterial binding of soluble 125I-labeled Vn; design: species or system Staphylococcus aureus; details: reference strain V8
Procedure: as §7

[13] = test system: S. epidermidis strain BD5703; assay: Bacterial binding of soluble 125I-labeled Vn; design: species or system Staphylococcus epidermidis; details: less than 5% is considered as negative binding
Procedure: as §7

[14] = inhibitor 1 mg/ml, added at the same time as bacteria

Row | Compound | Effect on BD5703 binding of immobilized Vn (in words) [1] | Inhibition of labeled Vn binding to the 52 kDa band [2] | Inhibition of labeled Vn binding to the 38 kDa band [3] | Inhibition of labeled Vn binding to the 16 kDa band [5] | also measured
1 | O=C[C@@H](O)[C@@H](O)[C@H](O)[C@H](O)CO [D-mannose] | not by carbohydrates | – | – | – | –
2 | Heparin sodium salt [Heparin 1] | reduced significantly | almost erase | almost erase | almost erase | Inhibition of labeled Vn binding to the 21 kDa band [4]: not 21 kDa; Effect on BD5703 binding of immobilized Vn (in words) ([6]; component preincubated with Vn coated wells): increased the binding; Relative binding percentage ([6]; inhibitor 1 mg/ml, preincubated with Vn coated wells for 2 hours, then bacteria added): 135%; Inhibitory ability compared to hyaluronic acid ([1]; added at the same time as bacteria): more than 2 fold; Relative binding percentage [1, 14]: 18%
3 | hyaluronic acid | reduced significantly | inhibited | inhibited | – | Relative binding percentage [1, 14]: 41%
4 | C[C@@H](O)[C@H](O)[C@H](O)[C@@H](O)C=O [D-fucose] | not by carbohydrates | – | – | – | –
5 | fibrinogen | – | slightly blocked | slightly blocked | slightly blocked | –
6 | thrombospondin: human thrombospondin | – | slightly blocked | slightly blocked | slightly blocked | –
7 | Trypsin | – | – | – | – | Relative percentage binding of immobilized Vn [7]: 67%; Relative percentage binding of immobilized Vn [8]: 70%; Bacterial binding after trypsin treatment of immobilized Vn [9]: no binding was obtained
8 | fibronectin | – | slightly blocked | slightly blocked | slightly blocked | –
9 | O=C[C@H](O)[C@@H](O)[C@@H](O)[C@H](O)CO [D-galactose] | not by carbohydrates | – | – | – | –
10 | Soluble Vn: human vitronectin, purified; glycoprotein; also used 125I-labeled | – | – | – | – | Inhibition of binding of labeled Vn to BD5703 surface proteins [10]: could be inhibited; Binding of 125I-Vn to immobilized cells [11]: dose-related manner; Level of binding of radioactively labeled Vn in solution [12]: 14.2%; Level of binding of radioactively labeled Vn in solution [13]: more than 5%; Relative binding percentage ([1]; inhibitor 10 μg/ml, added at the same time as bacteria, control without inhibitor = 100): 40%; Inhibition of binding of immobilized Vn ([1]; soluble Vn added with bacteria): about 60%
11 | O=C[C@H](O)[C@@H](O)[C@H](O)[C@H](O)CO [D-glucose] | not by carbohydrates | – | – | – | –
12 | plasminogen: human plasminogen from Sigma | – | slightly blocked | slightly blocked | slightly blocked | –
13 | hemopexin: human hemopexin, purified | – | slightly blocked | slightly blocked | slightly blocked | –
